Values of other authors, collected in patent US8614315B2, “Cefdinir and cefixime formulations and uses thereof” (priority 2010, dated 2013).

What was measured:
[1] = pH 3.2, room temperature
[2] = not given; remark: listed apart in the source

SMILES | solubility in water, methanol, ethanol, acetone and many other organic solvents | solubility in a solution with a pH value of 3.2 [1] [mg/mL] | solubility in ethanol and acetone ([2]; ethanol, acetone) | solubility in ether, ethyl acetate, hexane and water ([2]; ether, ethyl acetate, hexane, water) | solubility in methanol and propylene glycol ([2]; methanol, propylene glycol)
C=CC1=C(C(=O)O)N2C(=O)[C@@H](NC(=O)/C(=N\O)c3csc(N)n3)[C@H]2SC1 [Cefdinir, (6R,7R)-7-[[(2Z)-(2-amino-4-thiazolyl)(hydroxyimino)acetyl]amino]-3-ethenyl-8-oxo-5-thia-1-azabicyclo[4.2.0]oct-2-en-2-carboxylic acid] | poor solubility | – | – | – | –
C=CC1=C(C(=O)O)N2C(=O)[C@@H](NC(=O)/C(=N\OCC(=O)O)c3csc(N)n3)[C@H]2SC1 [Cefixime, (6R,7R)-7-{[2-(2-amino-1,3-thiazol-4-yl)-2-(carboxymethyloxyimino)acetyl]amino}-3-ethenyl-8-oxo-5-thia-1-azabicyclo [4.2.0]oct-2-en-2-carboxylic acid] | – | 0.5 | partially soluble | does not dissolve | freely soluble
